The assay is described as follows: mitochondrial fusion inhibitors, confirmation, cell-based, chemical genetic, wild-type and mutant (AID 1361). As to conditions: Cell-based mitochondrial fusion phenotype, imaging.
Where [1] appears, read: mutant cells, measured here: mutant cell line IC50.

Calls of active or inactive are those of the source. How the calls were made is not given here. Some results are limits rather than exact numbers.

As for `CC1(c2ccc([N+](=O)[O-])cc2)CC(C)(C)N(C(=O)c2ccccc2)c2ccccc21` (centres undefined), the 50% inhibitory concentration (IC50) (WT cells) is 1.71 µM and the IC50 under setting [1] was 4.04 µM.

Consider `COc1ccc(N2CCN(CCNC(=O)c3nnc(Cc4c(F)cccc4Cl)o3)CC2)cc1`, for which the IC50 is, setting by setting: (WT cells) > 25 µM (inactive); under setting [1], over 25 µM.

For `COCC(C)NC(=O)c1cc(-c2cccc(OC)c2)on1` (centres undefined), the IC50 runs as follows: (WT cells) > 25 µM (inactive); under setting [1], over 25 µM.

Take `O=C(c1cnc(-c2ccc(Cl)cc2)s1)c1ccc(Cl)cc1Cl`: the IC50 runs as follows: (WT cells) 14.6 µM; under setting [1], over 25 µM.

Take `Cc1ccc(S(=O)(=O)Nc2ccc(C(OC(=O)c3ccccc3[N+](=O)[O-])(C(F)(F)F)C(F)(F)F)cc2)cc1`: the IC50 (WT cells) was 11 µM and the IC50 under setting [1] is over 25 µM.

`CCOP(=O)(OCC)c1nc(/C=C/c2ccccc2)oc1NCc1ccccc1`: the IC50 reads like this: (WT cells) > 25 µM (inactive); under setting [1], over 25 µM.

As for `COc1nc(SC)nc(Cl)c1Cc1ccc(OC(C)C)cc1`, the IC50 (WT cells) was 24.1 µM and the IC50 under setting [1] is over 25 µM.

As for `CC1(C(=O)OCC(=O)c2c[nH]c3ccccc23)CC1(Cl)Cl` (centres undefined), the IC50 was 5.84 µM (WT cells) and 9.97 µM under setting [1].

As to `COc1ccc(S(=O)(=O)N2CCCCCC2)cc1C(=O)OCc1c(C)noc1C`, the IC50 (WT cells) was > 25 µM (inactive) and the IC50 under setting [1] was over 25 µM.

`COC(=O)C1=CN(CCOC23CC4CC(CC(C4)C2)C3)C=C(C(=O)OC)C1c1ccsc1`: the IC50 was 17 µM (WT cells) and over 25 µM under setting [1].

Take `C=CCN1C(=O)C(CC(=O)Nc2ccc(OCCC)cc2)N(CCCN2CCN(Cc3ccccc3)CC2)C1=S` (centres undefined): the IC50 was > 25 µM (inactive) (WT cells) and over 25 µM under setting [1].

Regarding `CCn1cc(C(=O)NCCc2ccccc2)c(=O)c2cc(F)c(N3CCN(C)CC3)cc21`, the IC50 is, setting by setting: (WT cells) > 25 µM (inactive); under setting [1], over 25 µM.

On to `CCOC(=O)c1oc2cccc(OCC(O)CNC(C)C)c2c1C` (centres undefined), for which the IC50 is > 25 µM (inactive) (WT cells) and over 25 µM under setting [1].

In the case of `Cc1ncsc1C(=O)N1N=C2/C(=C/c3ccccc3)CCCC2C1c1ccccc1` (centres undefined), the IC50 was 10.3 µM (WT cells) and over 25 µM under setting [1].

As for `O=C(CCc1ccccc1)Nc1ncc2c(n1)CCCC2=O`, the IC50 (WT cells) is > 25 µM (inactive) and the IC50 under setting [1] is over 25 µM.

For `CCCCSc1nnc(CNC(=O)C23CC4CC(CC(C4)C2)C3)n1Cc1ccccc1`, the IC50 by setting is: (WT cells) > 25 µM (inactive); under setting [1], over 25 µM.

For the compound `CN1CC(=O)Nc2ccc(F)cc2C1=O`, the IC50 runs as follows: (WT cells) > 25 µM (inactive); under setting [1], over 25 µM.

For `CCOC(=O)Cn1c(=NC(=O)c2ccc([N+](=O)[O-])s2)sc2ccccc21`, the IC50 was 4.55 µM (WT cells) and over 25 µM under setting [1].

As to `CC(C)N(C(=S)NC1CCCCC1)c1ccccc1`, the IC50 is, setting by setting: (WT cells) > 25 µM (inactive); under setting [1], over 25 µM.

Turning to `COc1ccc(CNC(=O)[C@H](C)[C@@H]2C[C@@]2(C)[C@@H](NC(=O)OCc2ccccc2)c2ccccc2)cc1OC`, the IC50 runs as follows: (WT cells) 22.6 µM; under setting [1], over 25 µM.

Take `Cc1c(C)c2cc(Cl)c(O)c(CN3CCCC(C)C3)c2oc1=O` (centres undefined): the IC50 is > 25 µM (inactive) (WT cells) and over 25 µM under setting [1].

On to `Cc1ccccc1OCC(=O)Nc1ccccc1N1CCC(C)CC1`, for which the IC50 runs as follows: (WT cells) 16.1 µM; under setting [1], over 25 µM.

Consider `CCC1Oc2ccc(C)cc2N(CC(=O)NCCCN2CCCCC2CC)C1=O` (centres undefined), for which the IC50 runs as follows: (WT cells) > 25 µM (inactive); under setting [1], over 25 µM.

As to `CC(C)Cc1ccc(C(C)C(=O)OCC(=O)c2c[nH]c3ccccc23)cc1` (centres undefined), the IC50 reads like this: (WT cells) 17.5 µM; under setting [1], over 25 µM.

Regarding `CCCOP(=O)(OCCC)C(Nc1ccc(C(C)C)cc1)c1ccc([N+](=O)[O-])cc1` (centres undefined), the IC50 was 13.1 µM (WT cells) and over 25 µM under setting [1].

On to `Cc1ccc(NC(=S)N(Cc2ccc(Br)cc2)Cc2ccc(C(=O)O)cc2)cc1C`, for which the IC50 is > 25 µM (inactive) (WT cells) and over 25 µM under setting [1].

In the case of `COC(=O)C1CCN(C(=O)c2cc(OC)c(OC)c(OC)c2)CC1`, the IC50 is > 25 µM (inactive) (WT cells) and over 25 µM under setting [1].

On to `COc1ccccc1Nc1ncnc2nc[nH]c12`, for which the IC50 is > 25 µM (inactive) (WT cells) and over 25 µM under setting [1].

`CCOc1cc(C2Nc3ccccc3C(=O)N2c2ccccc2OC)ccc1O` (centres undefined): the IC50 is, setting by setting: (WT cells) > 25 µM (inactive); under setting [1], over 25 µM.

`CC1=CC(C)(C)N(C(=O)c2ccc(F)cc2)c2cc3c(cc21)OCO3`: the IC50 is > 25 µM (inactive) (WT cells) and over 12.5 µM under setting [1].

Regarding `COCCn1c(CN2CCC(Cc3ccccc3)CC2)nc2c1c(=O)n(C)c(=O)n2C`, the IC50 runs as follows: (WT cells) > 25 µM (inactive); under setting [1], over 25 µM.

With `O=C(NCc1ccccc1)c1ccc(-c2ccccc2C(F)(F)F)o1`, the IC50 reads like this: (WT cells) > 25 µM (inactive); under setting [1], over 25 µM.

Regarding `O=C(COc1ccccc1[N+](=O)[O-])N/N=C/C=C/c1ccco1`, the IC50 (WT cells) is > 25 µM (inactive) and the IC50 under setting [1] was over 25 µM.

Regarding `CC(=O)c1ccc(-n2nnnc2SCC(=O)Nc2cccc(NC(=O)c3ccco3)c2)cc1`, the IC50 is > 25 µM (inactive) (WT cells) and over 25 µM under setting [1].

Regarding `CCCCCOC(=O)c1ccc(NC(=O)c2ccco2)cc1`, the IC50 is, setting by setting: (WT cells) 12.4 µM (inactive); under setting [1], 10.5 µM.

For the compound `Cc1ccc(C(NC(=O)NC(C)c2ccccc2)C(Cl)(Cl)Cl)cc1F` (centres undefined), the IC50 runs as follows: (WT cells) 10.9 µM; under setting [1], over 25 µM.

On to `O=C(CCN1C(=O)/C(=C\c2cccs2)SC1=S)NC1=NCCS1`, for which the IC50 is 8.36 µM (WT cells) and 17.6 µM under setting [1].

For `O=c1c2cn[nH]c2nc(SCc2c(F)cccc2F)n1-c1ccc(Cl)cc1`, the IC50 is > 25 µM (inactive) (WT cells) and over 25 µM under setting [1].

For the compound `Cc1ccc(S(=O)(=O)NCc2ccco2)c(C)c1C`, the IC50 is > 25 µM (inactive) (WT cells) and over 25 µM under setting [1].

Consider `CCCCN(CCCC)CCNC(=O)Cc1nc2c(c(=O)[nH]c(=O)n2C)n1C`, for which the IC50 by setting is: (WT cells) > 25 µM (inactive); under setting [1], over 25 µM.

`O=C(N1CCOCC1)N1CCN(C(c2ccccc2)c2ccccc2)CC1`: the IC50 by setting is: (WT cells) > 25 µM (inactive); under setting [1], over 25 µM.

Turning to `O=c1oc(Nc2cccc(F)c2)nc2ccccc12`, the IC50 was > 25 µM (inactive) (WT cells) and over 25 µM under setting [1].

On to `Cc1ccc2nc(SC(C(=O)Nc3ccc(F)cc3)c3ccccc3)[nH]c2c1` (centres undefined), for which the IC50 reads like this: (WT cells) > 25 µM (inactive); under setting [1], over 25 µM.

`O=C(Nc1ccc(C(F)(F)F)cc1)c1cc(S(=O)(=O)NCC2COc3ccccc3O2)ccc1F` (centres undefined): the IC50 (WT cells) is 15.2 µM and the IC50 under setting [1] was over 25 µM.

As for `CCCNC(=O)c1ccccc1NC(=O)CSCc1ccc(OC)cc1`, the IC50 is, setting by setting: (WT cells) > 25 µM (inactive); under setting [1], over 25 µM.

As to `COC(=O)CCC(=O)COc1ccc(OC)cc1C#N`, the IC50 by setting is: (WT cells) > 25 µM (inactive); under setting [1], over 25 µM.

For `CCC1=NN2C(=N)/C(=C\c3cccn3-c3ccc(C)cc3C)C(=O)N=C2S1`, the IC50 is, setting by setting: (WT cells) 13.2 µM; under setting [1], over 25 µM.

Turning to `Cc1nc(N2CCCCC2)c2c(-c3cccs3)csc2n1`, the concentration for half-maximal inhibition (IC50) was 22.4 µM (WT cells) and over 25 µM under setting [1].

For the compound `Cc1ccc(C(=O)Nc2cc(Cl)ccc2N2CCCCC2)s1`, the IC50 (WT cells) was 7.64 µM and the IC50 under setting [1] was over 25 µM.

In the case of `CC(C)N1C(=S)SC(C)(C)C1n1oc(=O)n(-c2ccc(Cl)c(Cl)c2)c1=O` (centres undefined), the IC50 (WT cells) is > 25 µM (inactive) and the IC50 under setting [1] is over 25 µM.

For `CCOC(=O)c1c(C)[nH]c(C)c1C(=O)COC(=O)/C=C/c1cccc(C(F)(F)F)c1`, the IC50 (WT cells) was 20.6 µM and the IC50 under setting [1] was over 25 µM.

For the compound `CCCCOP(=O)(OCCCC)C(Nc1ccccc1)c1ccc2c(c1)OCO2` (centres undefined), the IC50 runs as follows: (WT cells) 20.3 µM; under setting [1], over 25 µM.

With `Cc1oc(-c2ccccc2)[n+]([O-])c1C`, the IC50 (WT cells) was > 25 µM (inactive) and the IC50 under setting [1] is over 25 µM.

In the case of `Cc1cc(C)c2nc(C(F)(F)F)nc(N3CC(C)OC(C)C3)c2c1` (centres undefined), the IC50 (WT cells) is > 25 µM (inactive) and the IC50 under setting [1] is over 25 µM.

Regarding `Cc1cc(NCCCn2ccnc2)n2ncc(-c3ccc(Cl)cc3)c2n1`, the IC50 (WT cells) was 11.1 µM and the IC50 under setting [1] was 17.9 µM.

Turning to `NC(=O)c1ccc(N2CCCCC2)c(N2C(=O)C3CC=CCC3C2=O)c1` (centres undefined), the IC50 runs as follows: (WT cells) > 25 µM (inactive); under setting [1], over 25 µM.

In the case of `COc1ccc(NC(=O)N2c3ccccc3CC2C)cc1OC` (centres undefined), the IC50 runs as follows: (WT cells) > 25 µM (inactive); under setting [1], over 25 µM.

Turning to `COc1ccc(NC(=S)NCCC(c2ccccc2)c2ccccc2)c(OC)c1`, the IC50 is, setting by setting: (WT cells) 7.67 µM; under setting [1], over 25 µM.

For `CCC(C(=O)OCC(=O)Nc1ccc(SC(F)F)cc1)c1ccccc1` (centres undefined), the IC50 by setting is: (WT cells) 17.6 µM; under setting [1], over 25 µM.

Take `Cc1nc(N2CCCCC2)c2c(C)c(C(=O)Nc3cccc(C(F)(F)F)c3)sc2n1`: the IC50 reads like this: (WT cells) 9.62 µM; under setting [1], over 25 µM.

With `Cc1ccc(SC(C)C(=O)Nc2ccccc2-c2ccccc2)cc1` (centres undefined), the IC50 runs as follows: (WT cells) 19.8 µM; under setting [1], over 25 µM.

On to `O=C(c1c(F)c(F)c(F)c(F)c1F)N(Cc1ccccc1)Cc1ccccc1`, for which the IC50 was 15 µM (WT cells) and 22.4 µM under setting [1].

For the compound `Cc1cc(NC(=S)N(Cc2cccc(Br)c2)CC2CCC(C(=O)O)CC2)ccc1Cl` (centres undefined), the IC50 is 21.9 µM (WT cells) and over 25 µM under setting [1].

As for `CCOc1ccccc1N1CCN(C(=S)NC(=O)C23CC4CC(CC(C4)C2)C3)CC1`, the 50% inhibitory concentration (IC50) by setting is: (WT cells) 19.5 µM; under setting [1], 22.5 µM.

As to `Cc1cc(NC(=S)N(Cc2ccc(Br)cc2)Cc2ccc(C(=O)O)cc2)ccc1Cl`, the IC50 runs as follows: (WT cells) 16.3 µM; under setting [1], over 25 µM.

As for `CCCCc1nc(NCCN)c(C#N)c2c1CSC(C)(C)C2`, the IC50 is 21.7 µM (WT cells) and over 25 µM under setting [1].

`CCOc1ccccc1-n1c(CN2CCN(C(=O)c3ccco3)CC2)nc2ccccc2c1=O`: the IC50 runs as follows: (WT cells) > 25 µM (inactive); under setting [1], over 25 µM.

What is called IC50 is the concentration that gives 50% inhibition.
